Experimental findings from ChEMBL document CHEMBL5223073, “Andrographolide suppresses cisplatin-induced endothelial hyperpermeability through activation of PI3K/Akt and eNOS -derived nitric oxide” (Bioorg Med Chem, 2020) are described below.

Active and inactive are the calls of the source. The rule behind the calls is not given here.

Assay [1] has as its system HUVEC. Put plainly: Inhibition of cisplatin-induced store operated Ca2+ release in HUVEC cells at 30 uM preincubated with compound in presence of PI3K inhibitor, wortmannin followed by cisplatin stimulation by Fura-2 AM staining based calcium influx assay. The format is functional, cell-based. Particulars: Homo sapiens.
In assay [2] the test system is HUVEC. The assay is described as follows: Activation of PI3K in cisplatin-treated HUVEC cells assessed as increase PIP3 formation pretreated for 30 mins followed by cisplatin addition by immunoprecipitation analysis. It counts as cell-based. Particulars: Homo sapiens, filed as activator, dose 10-30 µM.
The subject of assay [3] is HUVEC. The assay is described as follows: Downregulation of cisplatin-induced PKCalpha translocation in HUVEC cells at 30 uM incubated for 15 mins in presence of cisplatin and PI3K inhibitor, wortmannin by Western blot analysis. The format is functional, cell-based. Particulars: Homo sapiens. In general terms: A western blot detects proteins with antibodies after separation by electrophoresis.

The subject of assay [4] is HUVEC. The assay is described as follows: Downregulation of cisplatin-induced ICAM1 protein expression in HUVEC cells at 30 uM incubated for 1 hr by Western blot analysis. It counts as functional, cell-based. The settings on record: Homo sapiens.
For assay [5], the system named is HUVEC. The assay is described as follows: Activation of PI3K in cisplatin-treated HUVEC cells assessed as increase PIP3 formation at 30 uM pretreated for 30 mins in presence of PI3K inhibitor, wortmannin followed by cisplatin addition by immunoprecipitation analysis. The format is cell-based. The settings on record: Homo sapiens.

As to `C=C1CC[C@@H]2[C@](C)(CO)[C@H](O)CC[C@@]2(C)[C@@H]1C/C=C1/C(=O)OC[C@H]1O` [ANDROGRAPHOLIDE], in assay [1], the inhibition entry is “inactive”. Besides, the Activity entry in assay [2] was “Dose-Dependent Effect”. Also, the result in assay [3] and in assay [5] was inactive. Further, the outcome in assay [4] was Active.
